Data set [1] deals with CYP1A. Nature of the data set: in vitro. As to conditions: nude, mouse, pH 7.8.
Method: (§3) Nude mice were sacrificed by decapitation. The skin and liver were immediately removed and kept in ice bath or 4° C. […] Connective tissue, blood, and fat were carefully removed from the tissue. Excess water content was removed from the homogenized tissue by tissue papers before the tissue was weighed.
(§4) The suspension of homogenized tissue in potassium chloride solution was transferred into a Teflon pestle-glass homogenizer for homogenization for six (6) times. Then, potassium chloride solution was added into the homogenized suspension to bring the volume to about four (4) times of the homogenized suspension. The diluted suspension was 5 transferred into a centrifuge tube and centrifuged at 4° C., 9000 xg, for twenty (20) minutes. The supernatant containing microsomes from skin or liver tissue and other soluble substance were removed and the volume of the supernatant was brought up to four (4) times of the weight of the tissue by adding potassium chloride solution. The diluted supernatant was transferred into a centrifuge tube and centrifuged at 4° C., 100,000 xg, for one (1) hour (Beckman L8-80M). The precipitate containing the microsomes was obtained. Potassium chloride solution was added into the precipitate to bring the volume up to four (4) times of the weight of the tissue, and the suspension was centrifuged at 4° C., 100,000 xg for one (1) hour, to obtain the washed microsomes, which were stored at −78° C. in 0.1M KH2PO4-K2HPO4 buffer (pH=7.4).
(§5) The enzymatic activity of CYP1A was determined based on the activity of 7-ethoxyresorufin-O-deethylase (i.e., for CYP1A) and 7-methoxyresorufin-O-demethylase (i.e., CYP1A2). […] Except for the blank group, the reaction was triggered by adding 0.54 μM NADPH. In the test tube (16×100 mm), the reaction was carried out for ten (10) minutes at constant temperature (37° C.) with vibration and without light Methanol 2.5 ml was added into the reaction mixture to stop the reaction. Protein precipitate was removed from the reaction mixture by centrifuging the reaction mixture at 180 xg for ten (10) minutes. The supernatant was tested for florescent intensity with 550 nm as the excitation wavelength and 585 nm the emission wavelength. The florescent intensity was compared with 0.01 μM-0.1 μM standard Rhodamine B solution to obtain the reading of the CYP1A enzyme activity.
The subject of data set [2] is CYP1A. Nature of the data set: in vitro. As to conditions: nude, mouse; for activity at 10 min, 1 µM / activity at 10 min, 10 µM / activity at 10 min, 100 µM: pH 7.8, dermal CYP1A activity (% of control group); for inhibition at 10 min, 100 µM: pH 7.8, inhibition of dermal CYP1A activity. From the text: (§1) Nude mice were sacrificed by decapitation.
(§2) The precipitate containing the microsomes was obtained.

In the next data set the test system is dermal CYP1A. Briefly: in vitro.
From the text: as §1, §2

The results in this text go back to patent US20030166583A1, “Dermal cytochrome P450 1A inhibitors and enhancers” (priority 2002, published 2003).

Where two headings read alike, the source gives them in different places.

Method for liver CYP1A: as §3, §4, §5

For the molecule `O=c1cc(-c2ccc(O)cc2)oc2cc(O)cc(O)c12` [Apigenin], in the data set with CYP1A [1], the activity at 10 min, 1 µM was 118% and the activity at 10 min, 100 µM came to 53.5%. Further, in the data set on CYP1A [2], the activity at 10 min, 1 µM is 103%; the activity at 10 min, 10 µM turned out to be 97.2%; the activity at 10 min, 100 µM was determined as 76.4%; the inhibition – broadly, the relative decrease from the control value, in per cent – at 10 min, 100 µM is roughly 24%.
With `O=C(O)/C=C/c1ccccc1` [Trans-cinnamic acid], in the data set on CYP1A [1], the activity at 10 min, 1 µM came to 109%; the activity at 10 min, 10 µM is 103%; the activity at 10 min, 100 µM was 101%. Moreover, in the data set with CYP1A [2], the activity at 10 min, 1 µM was determined as 117%; the activity at 10 min, 10 µM stood at 110%; the activity at 10 min, 100 µM came out at 86.6%; the inhibition at 10 min, 100 µM was roughly 13%.
As for `O=c1cc(-c2ccccc2)oc2ccc3ccccc3c12` [Beta-NF, β-naphthoflavone], the “liver CYP1A activity (% of control group)” value turned out to be 75.00% in the data set with liver CYP1A (1 µM), 22.78% with liver CYP1A (10 µM) and 13.79% in the data set on liver CYP1A (100 µM). Also, the “dermal CYP1A activity (% of control group)” value in the data set on dermal CYP1A (1 µM) is recorded as 27.41%; in the data set on dermal CYP1A (10 µM) it was 24.00%; in the data set with dermal CYP1A (100 µM), 3.76%.
